Results on 2 molecules are retold here after US12122811B2, “BDNF mimetic peptide amphiphiles” (Northwestern University, priority 2018, dated 2024).

The target of series [1] is T1, TrkB receptor (Mus musculus, UniProt P15209).
T1 construct: Protein was extracted from primary neuronal cultures; endogenous in cells; host or cells: primary cortical neurons from E16 CD1 mouse embryos, 14 DIV
The experiment in a line: TrkB receptor phosphorylation (p-TrkB) by western blot in primary cortical neurons. The settings on record: for TrkB phosphorylation after pre-treatment with inhibitor K252a: K252a 2 h prior to treatment, 6 h post-treatment. The class given is cell-based. On the procedure:
2.3.2. Dissection of Embryonic Primary Cortical Neurons. Neurons were obtained from embryonic brains as described elsewhere.^2 Briefly, time-pregnant mouse was sacrificed by cervical dislocation and the embryos were extracted at embryonic day 16 (E16). Cerebral cortices were dissected from the mouse embryos and meninges were removed in a solution of Hank's Balanced Salt Solution (HBSS) with 1% pen-strep (Invitrogen) and then digested with trypsin (Invitrogen) and DNAse (Sigma-Aldrich) for 10 min at 37° C. The tissue was mechanically dissociated, centrifuged at 1000 g for 5 min, and resuspended in CO2-equilibrated Neurobasal (NB) neuronal culture medium (Invitrogen) supplemented with 10% normal horse serum (NHS) (Invitrogen), 1% pen-strep (Invitrogen), 0.5 mM L-glutamine (Invitrogen), and 5.8 μL NaHCO3/mL (Sigma-Aldrich). The cell suspension was pre-plated at 37° C. for 30 min. Afterwards, the supernatant was collected, passed through a cell strainer with 100 μm pore size and centrifuged at 1000 g for 5 min. The pellet was resuspended in NB neuronal culture medium (1% NHS, 1% pen-strep, 0.5 mM L-glutamine, 22 μM glutamic acid (Sigma-Aldrich), 2% B27 (Gibco), and 5.8 μL NaHCO3/mL (Sigma-Aldrich), and plated at different densities (depending on the type of experiment, see below) directly on tissue culture plates coated with poly-D-lysine (Sigma-Aldrich). After 24 hs, the medium was replaced with serum-free neuronal culture medium (1% pen-strep, 0.5 mM L-glutamine, 2% B27, 5.8 μL NaHCO3/mL). Under these conditions, we obtained a neuron-enriched culture with a composition of approximately 10% glial cells.
BDNF PA Treatments and Cell Culture Procedures. Treatments were prepared by dissolving PA (including E2 Filler, E2 Filler+E4PEG, E2 Filler+Linear BDNF, E2 Filler+BDNF PAs) and BDNF peptide at different concentrations (0.5, 1.0 or 5.0 μM), in media without serum or B27 supplement or starvation media. Unless otherwise noted, BDNF PA, Linear BDNF PA, or E4PEG PAs were co-assembled at 10 mol % with E2 filler PA (total concentration of PA was 5.0, 10.0, or 50.0 μM respectively). For the co-assembly ratio study, BDNF PA was co-assembled at 10, 20, 50, 70, 90, and 100 mol %. Human/Murine/Rat BDNF protein (Peprotech) was resuspended at different concentrations (0.25, 0.5 and 1 nM) in starvation media.
For western blot, cells were cultured in 6 well plates at a density of approximately 900,000 cells/well for 14 DIV before being treated. Treatments were added for 2, 4, 6, 8, 12 or 24 h in vitro before protein was harvested. […] Protein was extracted after six hours of treatment.
Western Blot. Protein was extracted from primary neuronal cultures with Halt Protease and Phosphatase Inhibitor Cocktail (Thermo Scientific) and a BCA assay (Thermo Scientific) was performed to determine protein content of each sample. Cell protein was loaded into and separated using a 4-20% SDS-PAGE gel (Bio-Rad). It was then electrotransferred from the gel to a nitrocellulose membrane (Bio-Rad). The membranes were blocked with 5% milk solution (Bio-Rad) for 30 minutes followed by an overnight incubation with primary antibodies at 4° C. The following primary antibodies were used: rabbit anti-pTrkB (1:1000, Cell Signaling), rabbit anti-TrkB (1:1000, Cell Signaling), rabbit anti-Actin (1:2000, Sigma Aldrich), mouse anti-Actin (1:2000, Sigma Aldrich), rabbit anti-pPLCγ (1:1000, Cell Signaling), rabbit anti-PLCγ (1:1000, Cell Signaling), rabbit anti-pAKT (1:2000, Cell Signaling), mouse anti-AKT (1:2000, Cell Signaling), rabbit anti-pERK1+ERK2 (1:1000, Abcam), rabbit anti-ERK 1/2 (1:1000, Cell Signaling), rabbit anti-PSD95 (1:1000, Abcam), rabbit anti-MAP-2 (1:2000, BioLegend), and mouse anti-Tuj-1 (1:1000, BioLegend). Membranes were then incubated with their corresponding secondary HRP-conjugated antibodies (1:1000; ThermoFisher). Protein signals were detected using Radiance Bioluminescent ECL substrate (Azure Biosystems). […]
On the technique in general: In western blotting, separated proteins are transferred to a membrane and probed.

Series [2] has as its system PI3K pathway (pAKT). The experiment in a line: PI3K pathway activation, western blot of phosphorylated AKT (pAKT). Format: cell-based, mouse. The settings on record: 6 h of treatment, vs control conditions. As to the method: For western blot, cells were cultured in 6 well plates at a density of approximately 900,000 cells/well for 14 DIV before being treated. Treatments were added for 2, 4, 6, 8, 12 or 24 h in vitro before protein was harvested. For TrkB inhibitor studies, cells were cultured for 14 DIV and then treated with a TrkB specific inhibitor, K-252a (Sigma Aldrich), for 1 hour prior to being treated with the different conditions mentioned above. Protein was extracted after six hours of treatment.
Western Blot. Protein was extracted from primary neuronal cultures with Halt Protease and Phosphatase Inhibitor Cocktail (Thermo Scientific) and a BCA assay (Thermo Scientific) was performed to determine protein content of each sample. Cell protein was loaded into and separated using a 4-20% SDS-PAGE gel (Bio-Rad). It was then electrotransferred from the gel to a nitrocellulose membrane (Bio-Rad). The membranes were blocked with 5% milk solution (Bio-Rad) for 30 minutes followed by an overnight incubation with primary antibodies at 4° C. […] Protein signals were detected using Radiance Bioluminescent ECL substrate (Azure Biosystems). Densitometry analysis, standardized to total receptor content or Actin as a control for protein loading, was performed using ImageJ software.^3 For quantification, triplicate samples were analyzed and at least two different experiments were conducted.

Positions of bridges follow the written chain, without caps; N, C: chain ends. Non-standard residues stand in square brackets, D forms with d. Residues, ends and D or L forms follow the SMILES beside them. Chains are numbered I, II in the order given. *: point of attachment. PEG6 = NCCOCCOCCOCCOCCOCCOCCC(=O)O; Palmitoyl = CCCCCCCCCCCCCCCC(=O)*

T1 sequence (P15209 32-821): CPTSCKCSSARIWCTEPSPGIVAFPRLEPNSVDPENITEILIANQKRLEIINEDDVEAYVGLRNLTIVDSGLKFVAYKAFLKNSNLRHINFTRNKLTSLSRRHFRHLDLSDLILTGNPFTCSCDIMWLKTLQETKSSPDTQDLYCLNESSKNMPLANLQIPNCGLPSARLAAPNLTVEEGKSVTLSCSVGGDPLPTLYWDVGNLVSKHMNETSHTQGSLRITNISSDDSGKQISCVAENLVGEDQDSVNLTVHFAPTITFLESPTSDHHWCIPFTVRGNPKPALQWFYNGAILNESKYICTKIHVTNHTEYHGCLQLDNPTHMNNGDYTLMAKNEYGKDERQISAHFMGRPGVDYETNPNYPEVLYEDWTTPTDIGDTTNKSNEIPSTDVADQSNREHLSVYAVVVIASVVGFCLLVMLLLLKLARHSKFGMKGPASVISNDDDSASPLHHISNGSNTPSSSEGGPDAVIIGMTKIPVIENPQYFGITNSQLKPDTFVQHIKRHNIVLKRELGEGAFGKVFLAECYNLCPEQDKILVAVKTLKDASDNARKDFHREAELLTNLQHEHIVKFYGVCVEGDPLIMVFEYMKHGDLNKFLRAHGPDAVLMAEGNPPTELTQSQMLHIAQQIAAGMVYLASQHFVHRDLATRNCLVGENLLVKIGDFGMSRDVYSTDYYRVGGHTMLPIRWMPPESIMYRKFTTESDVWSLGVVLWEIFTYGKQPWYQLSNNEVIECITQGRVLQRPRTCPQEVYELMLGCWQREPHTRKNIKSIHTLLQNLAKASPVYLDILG

`CCCCCCCCCCCCCCCC(=O)N[C@H](C(=O)N[C@H](C(=O)N[C@@H](C)C(=O)N[C@@H](C)C(=O)N[C@@H](CCC(=O)O)C(=O)N[C@@H](CCC(=O)O)C(=O)N[C@@H](CCC(=O)O)C(=O)N[C@@H](CCC(=O)O)C(=O)NCCOCCOCCOCCOCCOCCOCCC(=O)NCCCC[C@@H]1NC(=O)[C@H]2CCCN2C(=O)[C@H](CCCNC(=N)N)NC(=O)[C@H](CCCCN)NC(=O)[C@H](CCCCN)NC1=O)C(C)C)C(C)C` [BDNF PA, RKK(aK)(dP)-(PEG6 Spacer)-EEEEAAVV-C16 (SEQ ID NO: 5)] (I: Palmitoyl-VVAAEEEE[PEG6] / II: cyclo(KKKR[dP]); amide I:C-II:1): the “dose dependence of TrkB activation” value in series [1] (0.5, 1.0 and 5.0 μM, 6 h) is recorded as “no dose-dependent activation of TrkB”. The “activation of TrkB receptor, co-assembly ratio study” value in series [1] (10-50 mol % BDNF PA co-assembled with E2 Filler PA, 6 h) is on record as “increase in activation of TrkB receptor in comparison with the control conditions”; in series [1] (90-100 mol % BDNF PA (do not form fibers), 6 h), “unable to activate the receptor to the same degree”. The “TrkB phosphorylation after pre-treatment with inhibitor K252a” value in series [1] is “completely blocked”. Moreover, in series [2], the “activation of the PI3K pathway (pAKT)” value is given as “marked increase in activation”.

B1: BDNF protein: Human/Murine/Rat BDNF protein (Peprotech) (protein, UniProt P23560 19-247, looked up)
Neurotrophic factor BDNF …: APMKEANIRGQGGLAYPGVRTHGTLESVNGPKAGSRGLTSLADTFEHVIEELLDEDQKVRPNEENNKDADLYTSRVMLSSQVPLEPPLLFLLEEYKNYLDAANMSMRVRRHSDPARRGELSVCDSISEWVTAADKKTAVDMSGGTVTVLEKVPVSKGQLKQYFYETKCNPMGYTKEGCRGIDKRHWNSQCRTTQSYVRALTMDSKKRIGWRFIRIDTSCVCTLTIKRGR
On to B1, for which, in series [1] (BDNF protein 0.25 nM, time course to 24 h), the “persistence of p-TrkB” value is on record as “no longer showing p-TrkB after 12 h”. Also, the “TrkB phosphorylation after pre-treatment with inhibitor K252a” value in series [1] is on record as “completely blocked”. The “activation of the PI3K pathway (pAKT)” value in series [2] is reported as “marked increase in activation”.
